Literature values as cited in patent US11737988B2, “Anti-hypertensive and cholesterol-lowering fixed-dose combination and method of manufacture” (CardioPharma, Inc., priority 2019, dated 2023).

Conditions: cholesterol-lowering drugs (statins); known to those of skill in the art

| SMILES | bioavailability [%] |
| --- | --- |
| COCc1c(C(C)C)nc(C(C)C)c(/C=C/[C@@H](O)C[C@@H](O)CC(=O)O)c1-c1ccc(F)cc1 [cerivastatin] | 60 |
| O=C(O)C[C@H](O)C[C@H](O)/C=C/c1c(C2CC2)nc2ccccc2c1-c1ccc(F)cc1 [pitvastatin] | 60 |
